Experiments:
[1] = system: release of soluble CD23 (RPMI 8866 cell plasma membranes); experiment: RPMI 8866 cell membrane CD23 cleavage activity assay; type: biochemical, human; settings: RPMI 8866 plasma membranes, 37° C., sCD23 by EIA; read-out: IC50, inhibition of production of sCD23
Method: Procedure 1: The ability of test compounds to inhibit the release of soluble CD23 was investigated by use of the following procedure.
RPMI 8866 Cell Membrane CD23 Cleavage Activity Assay:
Plasma membranes from RPMI 8866 cells, a human Epstein-Barr virus transformed B-cell line (Sarfati et al., Immunology 60 [1987] 539-547) expressing high levels of CD23 are purified using an aqueous extraction method. Cells resuspended in homogenization buffer (20 mM HEPES pH 7.4, 150 mM NaCl, 1.5 mM MgCl2, 1 mM DTT) are broken by N2 cavitation in a Parr bomb and the plasma membrane fraction mixed with other membranes is recovered by centrifugation at 10,000×g. […]
The fractionated membranes are incubated at 37° C. for times up to 4 hrs to produce fragments of CD23 which are separated from the membrane by filtration in 0.2 micron Durapore filter plates (Millipore) after quenching the assay with 5 uM Preparation 1 from WO 95/31457 ([4-(N-Hydroxyamino)-2-(R)-isobutyl-3-(S)-(2-thiophenethiomethyl)succinyl]-(S)-phenylalanine—methylamide sodium salt, prepared according to the procedure descibed in Example 11 of WO 90/05719). sCD23 released from the membrane is determined using the EIA kit from The Binding Site (Birmingham, UK) or a similar one utilising MHM6 anti-CD23 mAb [Rowe et al., Int. […]

[2] = target: T1, human recombinant collagenase (Homo sapiens, UniProt P03956); experiment: Collagenase inhibition assay; type: biochemical; settings: 37° C., 18 h, acetylated 3H type 1 bovine collagen
T1 construct: made in house; host or cells: E. coli
T1 sequence (P03956 100-469): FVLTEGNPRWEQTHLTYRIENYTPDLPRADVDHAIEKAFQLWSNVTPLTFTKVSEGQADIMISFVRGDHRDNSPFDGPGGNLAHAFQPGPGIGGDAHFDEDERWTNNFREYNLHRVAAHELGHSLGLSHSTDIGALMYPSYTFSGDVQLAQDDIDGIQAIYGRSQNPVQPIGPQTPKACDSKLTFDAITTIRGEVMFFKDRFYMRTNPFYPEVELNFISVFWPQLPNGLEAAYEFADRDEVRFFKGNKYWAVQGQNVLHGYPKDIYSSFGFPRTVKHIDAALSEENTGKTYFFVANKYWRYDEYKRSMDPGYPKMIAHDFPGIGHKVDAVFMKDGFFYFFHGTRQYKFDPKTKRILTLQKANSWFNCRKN
Method: Procedure 2: The ability of test compounds to inhibit matrix metalloproteases was investigated using the following procedures.
Collagenase Inhibition Assay:
The potency of compounds to act as inhibitors of collagenase was determined by the method of Cawston and Barrett (Anal. Biochem. 99, 340-345, 1979), hereby incorporated by reference, whereby a 1 mM solution of the inhibitor being tested or dilutions thereof, was incubated at 37° C. for 18 h with collagen and human recombinant collagenase, from synovial fibroblasts cloned, expressed and purified from E. Coli, (buffered with 150 mM Tris, pH 7.6, containing 15 mM calcium chloride, 0.05% Brij 35, 200 mM sodium chloride and 0.02% sodium azide). The collagen was acetylated ^3H type 1 bovine collagen prepared by the method of Cawston and Murphy (methods in Enzymology 80, 711,1981) The samples were centrifuged to sediment undigested collagen and an aliquot of the radioactive supernatant removed for assay on a scintillation counter as a measure of hydrolysis. The collagenase activity in the presence of 1 mM inhibitor, or dilution thereof, was compared to activity in a control devoid of inhibitor and the results reported as that concentration effecting 50% of the collagenase (IC50).

MMP-3 = target: T2, MMP-3 (Homo sapiens, UniProt P08254); experiment: General MMP inhibition fluorescence quench assay, MMP-3; type: biochemical; settings: room temperature
T2 construct: purchased Calbiochem
Method: (§1) General MMP Inhibition Assays:
(§2) Inhibition of matrix metalloprotease activity was determined using a fluorescence quench assay with appropriate substrate. For example, MMP activity was determined using MMP activated using trypsin, according to Lark et al, Connective Tissue Res. 25, 52 (1990). The MMP is incubated at room temperature in a microtitre plate in a total volume of 100 ul, containing 0.15 M Tris Cl, 15 mM CaCl2, 0.2 M NaCl, pH 7.6 (assay buffer); inhibitor at concentrations up to 100 uM, with no more than 2% DMSO final concentration, 10 uM substrate (such as SDP-3815-PI for MMP-1, Peptides International). The MMP concentration is <10 nM, and determined empirically with the appropriate substrate to give at least a 20-fold increase in fluorescence emission in 30 min. Fluorescent excitation wavelength was 355 nm, emission wavelength 400-460 nm, and data points are collected to generate slope (change in fluorescence with time). Percent inhibition for each concentration is calculated from the slope at time zero, and IC50 values from the concentration dependence. MMP-1, 2, 3, 7, 9, 13, 14 may all be assayed in the same manner, using commercially available substrates reported to be effective for each enzyme. Enzymes were obtained from Calbiochem and activated using the same trypsin method.

MMP-13 = target: T3, MMP-13 (Homo sapiens, UniProt P45452); experiment: General MMP inhibition fluorescence quench assay, MMP-13; type: biochemical; settings: room temperature
T3 construct: purchased Calbiochem
Method: as §1, §2

T2 sequence (P08254 100-477, species assumed): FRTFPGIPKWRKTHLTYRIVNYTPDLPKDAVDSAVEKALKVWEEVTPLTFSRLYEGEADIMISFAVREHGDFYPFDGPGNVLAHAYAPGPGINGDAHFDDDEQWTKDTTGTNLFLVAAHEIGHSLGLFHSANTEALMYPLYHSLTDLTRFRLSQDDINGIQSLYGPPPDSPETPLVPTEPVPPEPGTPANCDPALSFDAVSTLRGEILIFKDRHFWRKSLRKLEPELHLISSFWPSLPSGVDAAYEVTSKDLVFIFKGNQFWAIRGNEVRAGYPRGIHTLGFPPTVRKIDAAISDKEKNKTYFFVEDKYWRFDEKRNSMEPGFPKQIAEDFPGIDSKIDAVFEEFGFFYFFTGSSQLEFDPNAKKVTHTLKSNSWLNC

| IC50 [1] | IC50 [2] | IC50 (MMP-3) | IC50 (MMP-13) | SMILES |
| --- | --- | --- | --- | --- |
| 0.01 µM | > 10 µM | > 10 µM | – | O=C(NO)C(CS(=O)(=O)Cc1cnc2ccccc2c1)c1ccccc1 (centres unmarked) [Example 1, N-Hydroxy-2-phenyl-3-(3-quinolylmethanesulfonyl)-propionamide] |
| 0.11 µM | – | – | 7 µM | CCCO[C@@H](CS(=O)(=O)Cc1cnc2ccccc2c1)C(=O)NO [Example 2, (R)—N-Hydroxy-2-propoxy-3-(quinolin-3-ylmethanesulfonyl)-propionamide] |

From patent US20060247271A1, “Sulphonyl hydroxamic acid derivatives as inhibitors of s-cd23” (priority 2003, published 2006)
